We go through 19 molecules from patent US11440880B2, “Thalidomide analogs and methods of use” (The USA, as represented by the Secretary, Department of …, priority 2015, dated 2022).

Common to all, as to format: cell-based, mouse
Holding throughout (set-up): key: NS=not significant; a “+” sign=anti-inflammatory or increased cell numbers; a “−” sign=cell toxicity or pro-inflammatory

The test system of data set [1] is TNF-α protein. Nature of the data set: TNF-α protein level (ELISA) in LPS-challenged RAW 264.7 cells. Particulars: LPS 30 or 60 ng/mL, 24 h. On the procedure:
(§1) Nitrite levels in the culture media were measured by use of the Griess Reagent System (Promega, Madison, Wis.), following the manufacturer's protocol. The O.D. of unknown samples was read at 520 nm λ, compared to a sodium nitrite standard curve (1.5 μM to 100 μM) and nitrite measured media concentrations expressed as μM units. As the lowest nitrite concentration on the Griess Reagent System standard curve was 1.5 μM, this was chosen as the effective cutoff for defining measurable nitrite concentrations. TNF-α protein levels were measured by use of an ELISA specific for mouse TNF-α protein (BioLegend, San Diego, Calif.) and are expressed as a % change from their appropriate control or as pg/ml.
(§2) RAW 264.7 cells obtained from ATCC (Manassas, Va., USA) were grown in DMEM media supplemented with 10% FCS, penicillin 100 μg/ml and streptomycin 100 μg/ml, and maintained at 37° C. and 5% CO2. Cells were seeded in 24 well plates and, 24 hours later, were utilized in studies. One hour prior to the initiation of any study, the seeding media was replaced with fresh media (1 mL), and the cells were allowed to equilibrate at 37° C. and 5% CO2.
(§3) RAW 264.7 cells were challenged with LPS (Sigma, St Louis, Mo.: serotype 055:B5) from at a final concentration of 30 or 60 ng/mL. This concentration of LPS in RAW 264.7 cells induces a sub-maximal rise in both TNF-alpha and nitrite levels without a loss in cellular viability. This sub-maximal rise is useful for assessing whether the addition of an experimental drug can either lower or further raise levels of TNF-α and nitrite. Twenty four hours following the addition of LPS, conditioned media was harvested and analyzed for quantification of secreted TNF-α protein and nitrite levels. Fresh media was replaced into the wells and cell viability was then assessed.
(§4) Thalidomide and analogs were prepared in tissue culture grade DMSO (Sigma). RAW 264.7 cells were pretreated with thalidomide, analogues or vehicle one hour prior to a challenge with LPS. The effects of various concentrations of thalidomide analogues were assessed. All compounds were synthesized to a chemical purity of >99.5%, as assessed by chemical characterization by a combination of 1H NMR, 13C NMR and GC/MS analyses (Bruker AC-300 spectrometer, together with elemental analyses (Atlantic Microlab, Inc., Norcross, Ga.).
A general note: An ELISA detects its analyte on a solid surface through an enzyme-linked reagent.

The test system of data set [2] is RAW 264.7 cells. As to the kind of experiment: Cell viability (CellTiter 96 AQueous One) of LPS-challenged RAW 264.7 cells. On the procedure:
The CellTiter 96® AQueous One Solution Cell Proliferation Assay (Promega, Madison, Wis.) is routinely used as an assay of cell proliferation, and was used according to the manufacturer's recommendations. Changes in cellular health status are determined by use of indirect measures related to the formation of a colored tetrazolium dye product that can be measured spectrophotometrically at 490 nm λ. […] Optical densities (expressed as O.D.s) were measured after various incubations.
as §2, §3, §4

In data set [3] the test system is nitrite levels in the culture media. Nature of the data set: Nitrite level (Griess Reagent System) in LPS-challenged RAW 264.7 cells. As to conditions: LPS 30 or 60 ng/mL, 24 h. On the procedure: as §1, §2, §3, §4
A general note: Nitrite, measured by Griess reagent, commonly stands in for NO production.

As for `Nc1ccc2c(c1)C(=O)N(C1=CNC(=O)CC1)C2` [Compound 43], the TNF-α entry in data set [1] (3 μM), in data set [1] (10 μM) and in data set [1] (30 μM) was “NS” each time. For the same molecule, the Viability result in data set [2] (3 μM), in data set [2] (10 μM) and in data set [2] (30 μM) was “NS” in each case.
For the molecule `Nc1ccc2c(c1)C(=O)N(C1CC=CNC1=O)C2` (stereo not shown) [Compound 44], the TNF-α entry in data set [1] (3 μM) is reported as “NS”; in data set [1] (10 μM), “NS”; in data set [1] (30 μM), “+”. For the same molecule, the Viability entry in data set [2] (3 μM), in data set [2] (10 μM) and in data set [2] (30 μM) was “NS” each time.
As for `O=C1CCCC(=O)N1CN1C(=O)CCC(N2Cc3ccccc3C2=O)C1=O` (stereo not shown) [Compound 48], the TNF-α entry in data set [1] (1 μM), in data set [1] (10 μM) and in data set [1] (30 μM) was “+” in each case. The Viability result in data set [2] (1 μM), in data set [2] (10 μM) and in data set [2] (30 μM) was “NS” each time.
As to `CC(N1Cc2ccccc2C1=O)C12CC3CC(CC(C3)C1)C2` (stereo not shown) [Compound 71], the results for the TNF-α result in data set [1] (1 μM), in data set [1] (10 μM) and in data set [1] (30 μM) were “NS”, “NS” and “+”, respectively. Moreover, the Nitrite entry in data set [3] (1 μM) is “NS”; in data set [3] (10 μM), “NS”; in data set [3] (30 μM), “+”. Moreover, the Viability entry is recorded as “NS” in data set [2] (1 μM), “NS” in data set [2] (10 μM) and “−” in data set [2] (30 μM).
Regarding `S=C1c2ccccc2CN1C12CC3CC(CC1C3)C2` [Compound 75], the values for the TNF-α entry in data set [1] (1 μM), in data set [1] (10 μM) and in data set [1] (30 μM) were “NS”, “+” and “+”, respectively. Besides, the Nitrite entry in data set [3] (1 μM), in data set [3] (10 μM) and in data set [3] (30 μM) was “NS” in each case. For the same molecule, the Viability entry in data set [2] (1 μM), in data set [2] (10 μM) and in data set [2] (30 μM) was “NS” throughout.
With `O=C1c2cccc([N+](=O)[O-])c2CN1CC12CC3CC(CC(C3)C1)C2` [Compound 78], the TNF-α result is reported as “NS” in data set [1] (1 μM), “+” in data set [1] (10 μM) and “+” in data set [1] (30 μM). In addition, the Nitrite result in data set [3] (1 μM) is given as “NS”; in data set [3] (10 μM) it was “NS”; in data set [3] (30 μM) it was “+”. The Viability result is given as “NS” in data set [2] (1 μM), “NS” in data set [2] (10 μM) and “−” in data set [2] (30 μM).
On to `Nc1cccc2c1CN(CC13CC4CC(CC(C4)C1)C3)C2=O` [Compound 79], for which the TNF-α entry in data set [1] (1 μM), in data set [1] (10 μM) and in data set [1] (30 μM) was “NS” each time. In addition, the figures for the Nitrite entry in data set [3] (1 μM), in data set [3] (10 μM) and in data set [3] (30 μM) were “NS”, “NS” and “+”, respectively. Further, the Viability result in data set [2] (1 μM) is given as “NS”; in data set [2] (10 μM) it was “NS”; in data set [2] (30 μM), “−”.
For `O=C1c2cccc([N+](=O)[O-])c2CN1C12CC3CC(CC(O)(C3)C1)C2` [Compound 87], the TNF-α entry in data set [1] (1 μM), in data set [1] (10 μM) and in data set [1] (30 μM) was “NS” throughout. The Nitrite entry in data set [3] (1 μM), in data set [3] (10 μM) and in data set [3] (30 μM) was “NS” in each case. In addition, the Viability result in data set [2] (1 μM), in data set [2] (10 μM) and in data set [2] (30 μM) was “NS” in each case.
Consider `Nc1cccc2c1CN(C13CC4CC(CC(O)(C4)C1)C3)C2=O` [Compound 88], for which the TNF-α entry in data set [1] (1 μM), in data set [1] (10 μM) and in data set [1] (30 μM) was “NS” each time. Moreover, the Nitrite result in data set [3] (1 μM), in data set [3] (10 μM) and in data set [3] (30 μM) was “NS” in each case. In addition, the Viability entry in data set [2] (1 μM), in data set [2] (10 μM) and in data set [2] (30 μM) was “NS” each time.
Consider `C[C@H]1[C@H](N2Cc3c(cccc3[N+](=O)[O-])C2=O)C[C@@H]2C[C@H]1C2(C)C` [Compound 90], for which the TNF-α result in data set [1] (1 μM), in data set [1] (10 μM) and in data set [1] (30 μM) was “+” each time. Also, the Nitrite entry in data set [3] (1 μM), in data set [3] (10 μM) and in data set [3] (30 μM) was “+” in each case. Further, the Viability entry in data set [2] (1 μM), in data set [2] (10 μM) and in data set [2] (30 μM) was “NS” each time.
`C[C@@H]1[C@@H](N2Cc3c(cccc3[N+](=O)[O-])C2=O)C[C@H]2C[C@@H]1C2(C)C` [Compound 92]: the TNF-α entry in data set [1] (1 μM) was “NS”; in data set [1] (10 μM), “+”; in data set [1] (30 μM) it was “+”. Also, the Nitrite entry in data set [3] (1 μM), in data set [3] (10 μM) and in data set [3] (30 μM) was “+” throughout. The values for the Viability entry in data set [2] (1 μM), in data set [2] (10 μM) and in data set [2] (30 μM) were “NS”, “−” and “−”, respectively.
Take `CC1(C)[C@@H]2CC[C@]1(C)[C@H](N1Cc3c(cccc3[N+](=O)[O-])C1=O)C2` [Compound 94]: the TNF-α result in data set [1] (1 μM) is given as “NS”; in data set [1] (10 μM), “+”; in data set [1] (30 μM), “+”. In addition, the Nitrite result in data set [3] (1 μM), in data set [3] (10 μM) and in data set [3] (30 μM) was “+” in each case. Also, the Viability entry in data set [2] (1 μM) is recorded as “NS”; in data set [2] (30 μM), “−”.
As to `CC1(C)[C@@H]2CC[C@]1(C)[C@H](N1Cc3c(N)cccc3C1=O)C2` [Compound 95], the TNF-α result in data set [1] (1 μM), in data set [1] (10 μM) and in data set [1] (30 μM) was “NS” in each case. The figures for the Nitrite result in data set [3] (1 μM), in data set [3] (10 μM) and in data set [3] (30 μM) were “NS”, “NS” and “+”, respectively. For the same molecule, the Viability result in data set [2] (1 μM) was “NS”; in data set [2] (10 μM), “+”; in data set [2] (30 μM), “+”.
Take `CC1(C)[C@@H]2CC[C@]1(C)[C@@H](N1Cc3c(cccc3[N+](=O)[O-])C1=O)C2` [Compound 96]: the TNF-α entry in data set [1] (1 μM) is given as “NS”; in data set [1] (10 μM), “+”; in data set [1] (30 μM), “+”. Also, the Nitrite result in data set [3] (1 μM), in data set [3] (10 μM) and in data set [3] (30 μM) was “+” in each case. The Viability result in data set [2] (1 μM) was “−”; in data set [2] (10 μM) it was “−”; in data set [2] (30 μM) it was “NS”.
On to `CC1(C)[C@@H]2CC[C@]1(C)[C@@H](N1Cc3c(N)cccc3C1=O)C2` [Compound 97], for which the TNF-α entry is listed as “NS” in data set [1] (1 μM), “+” in data set [1] (10 μM) and “NS” in data set [1] (30 μM). For the same molecule, the Nitrite entry in data set [3] (1 μM) is on record as “NS”; in data set [3] (10 μM), “NS”; in data set [3] (30 μM), “+”. In addition, the Viability result in data set [2] (1 μM), in data set [2] (10 μM) and in data set [2] (30 μM) was “NS” throughout.
For the molecule `CC1(C)[C@@H]2CC[C@]1(C)[C@@H](N1C=C3C(=CC=C/C3=N\OO)C1=O)C2` [Compound 98], the values for the TNF-α result in data set [1] (1 μM), in data set [1] (10 μM) and in data set [1] (30 μM) were “SIG”, “+” and “+”, respectively. For the same molecule, the Nitrite entry in data set [3] (1 μM), in data set [3] (10 μM) and in data set [3] (30 μM) was “+” each time. For the same molecule, the Viability result in data set [2] (1 μM), in data set [2] (10 μM) and in data set [2] (30 μM) was “NS” in each case.
Take `O=C1c2cccc([N+](=O)[O-])c2CN1[C@@H]1C[C@H]2CC[C@@H]1C2` [Compound 99]: the TNF-α entry in data set [1] (1 μM) was “NS”; in data set [1] (10 μM), “NS”; in data set [1] (30 μM), “+”. Moreover, the Nitrite result in data set [3] (1 μM), in data set [3] (10 μM) and in data set [3] (30 μM) was “+” throughout. For the same molecule, the Viability entry in data set [2] (1 μM) is given as “NS”; in data set [2] (10 μM), “−”; in data set [2] (30 μM), “−”.
Take `c1ccc2c(c1)CN=C2C1=NCc2ccccc21` [Compound 106]: the TNF-α result in data set [1] (3 μM), in data set [1] (10 μM) and in data set [1] (30 μM) was “NS” in each case. The Viability entry in data set [2] (3 μM), in data set [2] (10 μM) and in data set [2] (30 μM) was “+” each time.
Regarding `C[C@H]1[C@H](N2C(=O)C3C4C=CC(C4)C3C2=O)C[C@@H]2C[C@H]1C2(C)C` (stereo partly shown) [Compound 120], in data set [1] (10 μM), the TNF-α result is listed as “+”. Also, the Viability result in data set [2] (10 μM) is given as “−”.
